Results from patent US12077503B2, “Substituted cyclic amides and their use as herbicides” (FMC CORPORATION, priority 2015, dated 2024).

Assays:
[1] = tested on: ragweed (common ragweed, Ambrosia elatior); assay: Test A preemergence; type: in vivo; conditions: Ambrosia artemisiifolia, pre-emergence, 240 h
In short: (§1)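 Each rating is a visual injury score from 0 to 100 given about 10 d after treatment, judged against untreated controls kept alongside in the greenhouse. In loam soil–sand blend, seeds got a preemergence directed soil spray, while postemergence plants were 2 to 10 cm tall at spraying.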

[2] = tested on: giant foxtail (Setaria faberii); assay: Test A preemergence; type: in vivo; conditions: Setaria faberi, pre-emergence, 240 h
In short: as §1

[3] = tested on: ryegrass, Italian (Italian ryegrass, Lolium multiflorum); assay: Test A preemergence; type: in vivo; conditions: Lolium multiflorum, pre-emergence, 240 h
In short: as §1

Kochia (Kochia scoparia) = assay: Test A preemergence; type: in vivo; conditions: Bassia scoparia, pre-emergence, 240 h
In short: as §1

[4] = tested on: pigweed (Amaranthus retroflexus); assay: Test A preemergence; type: in vivo; conditions: Amaranthus retroflexus, pre-emergence, 240 h

Q: For CN1CC(c2cccc(I)c2)C(C(=O)Nc2ccccc2F)C1=O (centres unmarked) [Compound 846], which melting point is on record?
A: Its melting point is 132 to 135 °C.

Q: And the pest or weed control at 125 g/ha ([1]; 125 g ai/ha, preemergence, 0 to 100 scale where 0 is no effect and 100 is complete control, read-out: Ragweed plant response rating)?
A: The pest or weed control at 125 g/ha was 0%.

Q: And the pest or weed control at 500 g/ha ([1]; 500 g ai/ha, Preemergence, visual injury vs untreated controls after approximately 10 d, read-out: Ragweed plant response rating (0 to 100 scale where 0 is no effect and 100 is complete control))?
A: Its pest or weed control at 500 g/ha is 0%.

Q: What about the pest or weed control at 125 g/ha ([2]; 125 g ai/ha, preemergence, 0 to 100 scale where 0 is no effect and 100 is complete control, read-out: Foxtail, Giant plant response rating) of the same compound?
A: The pest or weed control at 125 g/ha was 90%.

Q: And the pest or weed control at 500 g/ha ([2]; 500 g ai/ha, Preemergence, visual injury vs untreated controls after approximately 10 d, read-out: Foxtail, Giant plant response rating (0 to 100 scale where 0 is no effect and 100 is complete control))?
A: The pest or weed control at 500 g/ha was 90%.

Q: What about the pest or weed control at 125 g/ha ([3]; 125 g ai/ha, preemergence, 0 to 100 scale where 0 is no effect and 100 is complete control, read-out: Ryegrass, Italian plant response rating) of the same compound?
A: Its pest or weed control at 125 g/ha is 60%.

Q: And the pest or weed control at 500 g/ha ([3]; 500 g ai/ha, Preemergence, visual injury vs untreated controls after approximately 10 d, read-out: Ryegrass, Italian plant response rating (0 to 100 scale where 0 is no effect and 100 is complete control))?
A: The pest or weed control at 500 g/ha was 70%.

Q: What about the pest or weed control at 125 g/ha (Kochia (Kochia scoparia); 125 g ai/ha, preemergence, 0 to 100 scale where 0 is no effect and 100 is complete control, read-out: Kochia plant response rating) of the same compound?
A: Its pest or weed control at 125 g/ha is 20%.

Q: What about the pest or weed control at 500 g/ha (Kochia (Kochia scoparia); 500 g ai/ha, Preemergence, visual injury vs untreated controls after approximately 10 d, read-out: Kochia plant response rating (0 to 100 scale where 0 is no effect and 100 is complete control)) of the same compound?
A: The pest or weed control at 500 g/ha was 70%.

Q: What about the pest or weed control at 125 g/ha ([4]; 125 g ai/ha, preemergence, 0 to 100 scale where 0 is no effect and 100 is complete control, read-out: Pigweed plant response rating) of the same compound?
A: The pest or weed control at 125 g/ha was 0%.

Q: What about the pest or weed control at 500 g/ha ([4]; 500 g ai/ha, Preemergence, visual injury vs untreated controls after approximately 10 d, read-out: Pigweed plant response rating (0 to 100 scale where 0 is no effect and 100 is complete control)) of the same compound?
A: Its pest or weed control at 500 g/ha is 0%.
